Measurements as given in patent US20260116928A1, “COMPOSITIONS AND PARTICLES FOR PAYLOAD DELIVERY” (Thornhill Therapeutics, Inc., priority 2019, published 2026).

Experiment: Glucose challenge model
Type: in vivo, male CD1 mice
Conditions: mice, IP glucose challenge; 10 μg IP injection
Description: The glucose challenge model used to test SEQ ID NO: 70-Exenatide was designed to examine the capacity of a GLP-1-like activity to enhance the rate of recovery from a glucose excursion.
The male CD1 mice used in the glucose challenge test were 9-16 weeks of age. To minimize stress due to handling, animals were acclimatized to the environment, blood sampling, and dosing procedures for 1 week prior to the start of experiments, as plasma glucose can be responsive to handling stress. Mice were fasted for 18 h prior to study. […] Blood samples were taken at t=0, 15, 30, 45, 60 min; 2, 3, and 4 hr. Blood glucose measurements were made using 5 μL blood sample taken from the tail with a commercial glucometer that was calibrated with glucose standards prior to the start of the study.

Exenatide (1-40)-Gly
time at which correction of the blood glucose excursion began: 15 min
time by which the correction profile was completed: ≤ 120 min
